From PubChem BioAssay AID248 (DTP/NCI, 2004)
Values joined by “and” are separate entries in the source; they are usually repeats but may differ in a detail not shown here. Equal values may be shown once. Inconclusive results and toxic doses are left out. Cut-off read from the data, not from the text of the source: active = T/C of 150% or more; inactive = T/C below 125%.

Test system: L1210 leukemia ip in BDF1 mice, survival T/C
Assay: NCI In Vivo Anticancer Drug Screen. Data for tumor model L1210 Leukemia (intraperitoneal) in B6D2F1 (BDF1) mice
Details: endpoint: mean survival time, higher = longer survival
Method in brief: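 Transplanted-tumor mice were given test agent; controls received vehicle only. Survival readings from the two groups were divided (treated over control).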

[1] = dose: 100.0 mg/kg/injection, schedule: Q01DX009 (ip), vehicle: Klucel (hydroxypropylcellulose) (HPC)
[2] = dose: 200.0 mg/kg/injection, schedule: Q01DX009 (ip), vehicle: Klucel (hydroxypropylcellulose) (HPC)
[3] = dose: 400.0 mg/kg/injection, schedule: Q01DX009 (ip), vehicle: Klucel (hydroxypropylcellulose) (HPC)
[4] = dose: 100.0 mg/kg/injection, schedule: Q04DX003 (ip), vehicle: saline with Tween-80
[5] = dose: 200.0 mg/kg/injection, schedule: Q04DX003 (ip), vehicle: saline with Tween-80
[6] = dose: 100.0 mg/kg/injection, schedule: Q01DX001 (ip), vehicle: saline with Tween-80
[7] = dose: 200.0 mg/kg/injection, schedule: Q01DX001 (ip), vehicle: saline with Tween-80
[8] = dose: 400.0 mg/kg/injection, schedule: Q01DX001 (ip), vehicle: saline with Tween-80
[9] = dose: 100.0 mg/kg/injection, schedule: Q01DX001 (ip), vehicle: other
[10] = dose: 200.0 mg/kg/injection, schedule: Q01DX001 (ip), vehicle: other
[11] = dose: 400.0 mg/kg/injection, schedule: Q01DX001 (ip), vehicle: other
[12] = dose: 100.0 mg/kg/injection, schedule: Q01DX009 (ip), vehicle: saline
[13] = dose: 100.0 mg/kg/injection, schedule: Q04DX003 (ip), vehicle: saline
[14] = dose: 12.5 mg/kg/injection, schedule: Q01DX009 (ip), vehicle: saline with Tween-80
[15] = dose: 25.0 mg/kg/injection, schedule: Q01DX009 (ip), vehicle: saline with Tween-80
[16] = dose: 200.0 mg/kg/injection, schedule: Q04DX003 (ip), vehicle: saline
[17] = dose: 400.0 mg/kg/injection, schedule: Q04DX003 (ip), vehicle: saline

Measured: T/C

COc1ccc(O)c(C(=O)c2cccc(OC)c2C#N)c1
inactive: dose: 25.0 mg/kg/injection, schedule: Q04DX003 (ip), vehicle: carboxymethylcellulose (CMC) 104 % of control | dose: 50.0 mg/kg/injection, schedule: Q01DX001 (ip), vehicle: carboxymethylcellulose (CMC) 103 % of control | dose: 50.0 mg/kg/injection, schedule: Q04DX003 (ip), vehicle: carboxymethylcellulose (CMC) 116 % of control | dose: 100.0 mg/kg/injection, schedule: Q01DX001 (ip), vehicle: carboxymethylcellulose (CMC) 97 % of control | dose: 100.0 mg/kg/injection, schedule: Q01DX009 (ip), vehicle: carboxymethylcellulose (CMC) 99 % of control and 100 % of control | dose: 100.0 mg/kg/injection, schedule: Q04DX002 (ip), vehicle: carboxymethylcellulose (CMC) 100 % of control and 91 % of control | dose: 100.0 mg/kg/injection, schedule: Q04DX003 (ip), vehicle: carboxymethylcellulose (CMC) 107 % of control and 86 % of control | dose: 200.0 mg/kg/injection, schedule: Q01DX001 (ip), vehicle: carboxymethylcellulose (CMC) 99 % of control | dose: 200.0 mg/kg/injection, schedule: Q01DX009 (ip), vehicle: carboxymethylcellulose (CMC) 97 % of control and 87 % of control | dose: 200.0 mg/kg/injection, schedule: Q04DX002 (ip), vehicle: carboxymethylcellulose (CMC) 104 % of control and 108 % of control | dose: 400.0 mg/kg/injection, schedule: Q01DX001 (ip), vehicle: carboxymethylcellulose (CMC) 99 % of control | dose: 400.0 mg/kg/injection, schedule: Q01DX009 (ip), vehicle: carboxymethylcellulose (CMC) 110 % of control and 86 % of control | dose: 400.0 mg/kg/injection, schedule: Q04DX002 (ip), vehicle: carboxymethylcellulose (CMC) 97 % of control and 90 % of control

O=P(Cc1ccccc1)(Cc1ccccc1)Cc1ccccc1
inactive: [1] 100 % of control | [2] 91 % of control | [3] 96 % of control

CCOC(=O)C(C)C(c1ccccc1)c1ccccc1 (stereo unspecified)
inactive: [4] 92 % of control | [5] 93 % of control | dose: 400.0 mg/kg/injection, schedule: Q04DX003 (ip), vehicle: saline with Tween-80 96 % of control

C[n+]1ccccc1CCC(=O)Nc1ccccc1
inactive: dose: 100.0 mg/kg/injection, schedule: Q01DX009 (ip), vehicle: saline with Tween-80 87 % of control

C/C(=N/C(=O)NN)c1ccc(Cl)cc1
inactive: [6] 108 % of control | [4] 93 % of control | [7] 95 % of control | [5] 98 % of control | [8] 101 % of control

Clc1nccc2n[nH]nc12
inactive: [9] 94 % of control | dose: 100.0 mg/kg/injection, schedule: Q04DX003 (ip), vehicle: other 103 % of control | [10] 91 % of control | dose: 200.0 mg/kg/injection, schedule: Q04DX003 (ip), vehicle: other 100 % of control | [11] 103 % of control | dose: 400.0 mg/kg/injection, schedule: Q04DX003 (ip), vehicle: other 107 % of control

CCCCN(CCCC)CCCC#N
inactive: dose: 25.0 mg/kg/injection, schedule: Q01DX009 (ip), vehicle: saline 105 % of control | dose: 25.0 mg/kg/injection, schedule: Q04DX003 (ip), vehicle: saline 106 % of control | dose: 50.0 mg/kg/injection, schedule: Q01DX009 (ip), vehicle: saline 103 % of control | dose: 50.0 mg/kg/injection, schedule: Q04DX003 (ip), vehicle: saline 100 % of control | [12] 100 % of control | [13] 103 % of control and 105 % of control

CC(C)(C)C1=CC(=O)C(Br)=C(N2C3C4CCC(C4)C32)C1=O (stereo unspecified)
inactive: dose: 100.0 mg/kg/injection, schedule: Q01DX001 (ip), vehicle: Klucel (hydroxypropylcellulose) (HPC) 110 % of control | dose: 200.0 mg/kg/injection, schedule: Q01DX001 (ip), vehicle: Klucel (hydroxypropylcellulose) (HPC) 96 % of control | dose: 400.0 mg/kg/injection, schedule: Q01DX001 (ip), vehicle: Klucel (hydroxypropylcellulose) (HPC) 94 % of control

O=C(C=C(C(F)(F)F)C(F)(F)F)c1ccc(Cl)c2ccccc12
inactive: [14] 94 % of control | [15] 92 % of control | dose: 25.0 mg/kg/injection, schedule: Q04DX003 (ip), vehicle: saline with Tween-80 107 % of control | dose: 50.0 mg/kg/injection, schedule: Q04DX003 (ip), vehicle: saline with Tween-80 90 % of control

CSC(=S)NNC(=O)c1ccc(C(F)(F)F)cc1
inactive: dose: 10.0 mg/kg/injection, schedule: Q04DX003 (ip), vehicle: saline 106 % of control | dose: 20.0 mg/kg/injection, schedule: Q04DX003 (ip), vehicle: saline 106 % of control | dose: 40.0 mg/kg/injection, schedule: Q04DX003 (ip), vehicle: saline 105 % of control

O=C(CCN1CC1)NCCCCCCNC(=O)CCN1CC1
inactive: dose: 100.0 mg/kg/injection, schedule: Q04DX003 (ip), vehicle: Klucel (hydroxypropylcellulose) (HPC) 92 % of control | dose: 200.0 mg/kg/injection, schedule: Q04DX003 (ip), vehicle: Klucel (hydroxypropylcellulose) (HPC) 90 % of control | dose: 400.0 mg/kg/injection, schedule: Q04DX003 (ip), vehicle: Klucel (hydroxypropylcellulose) (HPC) 86 % of control

On1ccc(N2CCOCC2)cc1=NC1CCCCC1
inactive: dose: 5.0 mg/kg/injection, schedule: Q01DX001 (ip), vehicle: saline 95 % of control | dose: 10.0 mg/kg/injection, schedule: Q01DX001 (ip), vehicle: saline 97 % of control | dose: 20.0 mg/kg/injection, schedule: Q01DX001 (ip), vehicle: saline 90 % of control | dose: 40.0 mg/kg/injection, schedule: Q01DX001 (ip), vehicle: saline 98 % of control | dose: 80.0 mg/kg/injection, schedule: Q01DX001 (ip), vehicle: saline 101 % of control | dose: 100.0 mg/kg/injection, schedule: Q01DX001 (ip), vehicle: saline 103 % of control

COc1ccc2c(=O)c3ccccc3oc2c1
inactive: [13] 101 % of control | [16] 101 % of control | [17] 103 % of control

O=C(Cl)CNS(=O)(=O)c1ccccc1
inactive: [9] 106 % of control | [10] 108 % of control | [11] 111 % of control

OCC1(c2ccccc2)OC1(c1ccccc1)c1ccccc1 (stereo unspecified)
inactive: dose: 6.25 mg/kg/injection, schedule: Q04DX002 (ip), vehicle: Klucel (hydroxypropylcellulose) (HPC) 86 % of control | dose: 12.5 mg/kg/injection, schedule: Q04DX002 (ip), vehicle: Klucel (hydroxypropylcellulose) (HPC) 101 % of control | dose: 25.0 mg/kg/injection, schedule: Q04DX002 (ip), vehicle: Klucel (hydroxypropylcellulose) (HPC) 99 % of control and 101 % of control

COC(=O)c1ccc2c(c1)OCO2
inactive: [6] 100 % of control | dose: 100.0 mg/kg/injection, schedule: Q01DX009 (ip), vehicle: saline sonified 94 % of control | [7] 103 % of control | dose: 200.0 mg/kg/injection, schedule: Q01DX009 (ip), vehicle: saline sonified 100 % of control | [8] 95 % of control | dose: 400.0 mg/kg/injection, schedule: Q01DX009 (ip), vehicle: saline sonified 102 % of control

O=C(O)c1ccccc1OCc1cc(=O)[nH]c(=O)[nH]1
inactive: [13] 95 % of control | [16] 95 % of control | [17] 98 % of control

CC1COC(Nc2cccc3c2CCCC3)=N1 (stereo unspecified)
inactive: [14] 103 % of control | [15] 92 % of control | dose: 50.0 mg/kg/injection, schedule: Q01DX009 (ip), vehicle: saline with Tween-80 90 % of control

CSc1nc(N(C)C)c2ncn(C3OC(C[N+](=O)[O-])C(OC(C)=O)C(OC(C)=O)C3OC(C)=O)c2n1 (stereo unspecified)
inactive: dose: 50.0 mg/kg/injection, schedule: Q04DX002 (ip), vehicle: saline 89 % of control | dose: 100.0 mg/kg/injection, schedule: Q04DX002 (ip), vehicle: saline 112 % of control | dose: 200.0 mg/kg/injection, schedule: Q04DX002 (ip), vehicle: saline 94 % of control

CCOC(=O)/C=C/c1c(Cl)nc2ccccn2c1=O
inactive: [6] 96 % of control | [12] 90 % of control | [7] 94 % of control | dose: 200.0 mg/kg/injection, schedule: Q01DX009 (ip), vehicle: saline 90 % of control | [8] 92 % of control | dose: 400.0 mg/kg/injection, schedule: Q01DX009 (ip), vehicle: saline 95 % of control

COc1ccc(NC(=O)NC(C)(C)C)c(OC)c1
inactive: [1] 100 % of control | [2] 100 % of control | [3] 98 % of control

CN=C1N[N+]2=C(C)CCCC2(C)S1 (stereo unspecified)
inactive: [13] 101 % of control | [16] 89 % of control
